{
  "source": "patent US11865126B2",
  "about": "“Method for treating anxiety disorders, headache disorders, and eating disorders with psilocybin” (priority 2019, dated 2024)",
  "system": "healthy subjects",
  "test": "Phase 1 healthy volunteer study, single oral dose: treatment-emergent adverse events",
  "assay_type": "in vivo, human",
  "conditions": "10 mg",
  "description": "A Phase 1 randomized, double-blind, placebo-controlled study to evaluate the effect of psilocybin on cognitive and emotional processing as compared to placebo in healthy volunteers was conducted. The study investigated the short-term (Day 7) and long-term (Day 28) effects of moderate (10 mg) and high doses (25 mg) of psilocybin on key domains of cognition, such as episodic memory, attention, working and spatial memory, social cognition and elements of executive function, including cognitive flexibility.\n90 healthy subjects were studied. Approximately 50% of the subjects were psilocybin-naïve. For subjects with prior psilocybin experience, the last exposure was at least 1 year prior to the signing of the Informed Consent Form (ICF). Approximately 50% of the subjects were female. Subjects were stratified by sex and age (18-35 years old; >35 years old).\nEach subject was assigned 1 treatment bottle containing 5 capsules packaged in a double-blind fashion, depending on the randomized treatment arm, the bottle contained one of the following: • a. Psilocybin 10 mg: 2×5-mg oral psilocybin capsules plus 3× placebo capsules • b. Psilocybin 25 mg: 5×5-mg oral psilocybin capsules • c. Placebo: 5× placebo capsules\nEach 5-mg oral psilocybin capsule comprised 5 mg crystalline psilocybin in the form of Polymorph A, 12.5 mg of SMCC 50, 79.5 mg of SMCC 90, 1 mg sodium starch glycolate, 1 mg colloidal silicon dioxide, and 1 mg sodium stearyl fumarate\nAdverse events: Throughout the course of the study, all AEs were monitored and recorded. Each AE was classified according to the following criteria: • i. […] Moderate: The AE produces some impairment of functioning, but is not hazardous to the subject's health. • iii. Severe: The AE produces significant impairment of functioning or incapacitation and is a definite hazard to the subject's health.\nSelected Adverse Events of included: • (a) Euphoric mood • (b) Dissociative disorder • (c) Hallucination • (d) Psychotic disorder • (e) Cognitive disorder • (f) Disturbance in attention • (g) Altered mood • (h) Impairment of psychomotor skills • (i) Inappropriate affect • (j) Overdose • (k) Intentional product misuse • (l) Illusion\nFor example, drug-induced hepatitis that resolved without evidence of hepatic failure would not be considered life threatening even though drug-induced hepatitis can be fatal. • (c) Inpatient hospitalization or prolongation of existing hospitalization. • (d) Persistent or significant disability/incapacity. • (e) Congenital anomaly/birth defect in the offspring of a subject who received psilocybin. • (f) Other: Important medical events that may not result in death, be life-threatening, or require hospitalization, may be considered an SAE when, based upon appropriate medical judgment, they may jeopardize the subject and may require medical or surgical intervention to prevent one of the outcomes listed in this definition. […] Visits:\nVisit 3 (V3): Drug Administration (Day 0): The subject was asked to eat a light breakfast at least two hours prior to coming to the clinic for study drug administration. On Day 0 (V3), the subject underwent the SSTS, had vital signs obtained, medications reviewed, AEs recorded and eligibility reviewed prior to being randomized to study drug. The study drug was administered to up to six subjects simultaneously in individual beds separated by a curtain. The subject was invited to put on eyeshades and headphones, lie down and listen to calming music for the rest of the session (six hours). The subject was supported 1:1 with a chaperone and supervised by the study psychiatrist and lead therapist.\nRecording of adverse events and prior/concomitant medication was performed at each visit.\nDuring administration of psilocybin, each subject received one on one support from a trained assisting therapist and each dosing session was supervised by a study psychiatrist and a lead therapist. […]",
  "data": [
    {"smiles": "CN(C)CCc1c[nH]c2cccc(OP(=O)(O)O)c12", "note": "[psilocybin]", "values": [
      {"measurement": "AEs potentially related to study treatment, % of AEs in arm", "value": 92.6, "unit": "%"},
      {"measurement": "Affect lability, worst severity Mild: Events", "value": 3},
      {"measurement": "Affect lability, worst severity Mild: N (%)", "value": "3 (10.0)"},
      {"measurement": "Affect lability, worst severity Moderate: Events", "value": 2},
      {"measurement": "Affect lability, worst severity Severe: Events", "value": 0},
      {"measurement": "Affect lability, worst severity Severe: N (%)", "value": 0},
      {"measurement": "Affect lability: Events", "value": 5},
      {"measurement": "Any Selected TEAE: % of subjects", "value": "(90.0) %"},
      {"measurement": "Any Selected TEAE: N (%)", "value": 27},
      {"measurement": "Any TEAE leading to death: Events", "value": 0},
      {"measurement": "Any TEAE leading to death: N (%)", "value": 0},
      {"measurement": "Any TEAE leading to study discontinuation: Events", "value": 0},
      {"measurement": "Any TEAE leading to study discontinuation: N (%)", "value": 0},
      {"measurement": "Any TEAE related to study treatment: % of subjects", "value": "(96.7) %"},
      {"measurement": "Any TEAE related to study treatment: N (%)", "value": 29},
      {"measurement": "Any TEAE, worst severity Mild: Events", "value": 12},
      {"measurement": "Any TEAE, worst severity Mild: N (%)", "value": "6 (20.0)"},
      {"measurement": "Any TEAE, worst severity Moderate: Events", "value": 38},
      {"measurement": "Any TEAE, worst severity Severe: Events", "value": 22},
      {"measurement": "Any TEAE: % of subjects", "value": 96.7, "unit": "%"},
      {"measurement": "Any serious TEAE related to study treatment: Events", "value": 0},
      {"measurement": "Any serious TEAE related to study treatment: N (%)", "value": 0},
      {"measurement": "Any serious TEAE: Events", "value": 0},
      {"measurement": "Any serious TEAE: N (%)", "value": 0},
      {"measurement": "Any severe TEAE: % of subjects", "value": "(33.3) %"},
      {"measurement": "Any severe TEAE: Events", "value": 22},
      {"measurement": "Any severe TEAE: N (%)", "value": 10},
      {"measurement": "Emotional disorder, worst severity Mild: Events", "value": 1},
      {"measurement": "Emotional disorder, worst severity Moderate: Events", "value": 1},
      {"measurement": "Emotional disorder, worst severity Severe: Events", "value": 0},
      {"measurement": "Emotional disorder, worst severity Severe: N (%)", "value": 0},
      {"measurement": "Emotional disorder: Events", "value": 2},
      {"measurement": "Euphoric mood, worst severity Mild: Events", "value": 0},
      {"measurement": "Euphoric mood, worst severity Mild: N (%)", "value": 0},
      {"measurement": "Euphoric mood, worst severity Moderate: Events", "value": 6},
      {"measurement": "Euphoric mood, worst severity Moderate: N (%)", "value": "6 (20.0)"},
      {"measurement": "Euphoric mood, worst severity Severe: Events", "value": 1},
      {"measurement": "Euphoric mood: Events", "value": 7},
      {"measurement": "Fatigue, worst severity Mild: Events", "value": 6},
      {"measurement": "Fatigue, worst severity Mild: N (%)", "value": "6 (20.0)"},
      {"measurement": "Fatigue, worst severity Moderate: Events", "value": 3},
      {"measurement": "Fatigue, worst severity Severe: Events", "value": 1},
      {"measurement": "Fatigue: Events", "value": 10},
      {"measurement": "Fatigue: N (%)", "value": "9 (30.0)"},
      {"measurement": "Feeling abnormal, worst severity Mild: Events", "value": 3},
      {"measurement": "Feeling abnormal, worst severity Mild: N (%)", "value": "3 (10.0)"},
      {"measurement": "Feeling abnormal, worst severity Moderate: Events", "value": 1},
      {"measurement": "Feeling abnormal, worst severity Severe: Events", "value": 0},
      {"measurement": "Feeling abnormal, worst severity Severe: N (%)", "value": 0},
      {"measurement": "Feeling abnormal: Events", "value": 4},
      {"measurement": "Feeling of relaxation: Events", "value": 5},
      {"measurement": "Feeling of relaxation: N (%)", "value": "3 (10.0)"},
      {"measurement": "Gastrointestinal disorders, worst severity Mild: Events", "value": 3},
      {"measurement": "Gastrointestinal disorders, worst severity Mild: N (%)", "value": "3 (10.0)"},
      {"measurement": "Gastrointestinal disorders, worst severity Moderate: Events", "value": 1},
      {"measurement": "Gastrointestinal disorders, worst severity Severe: Events", "value": 0},
      {"measurement": "Gastrointestinal disorders, worst severity Severe: N (%)", "value": 0},
      {"measurement": "Gastrointestinal disorders: Events", "value": 4},
      {"measurement": "General disorders and administration site conditions, worst severity Mild: Events", "value": 17},
      {"measurement": "General disorders and administration site conditions, worst severity Moderate: Events", "value": 6},
      {"measurement": "General disorders and administration site conditions, worst severity Moderate: N (%)", "value": "3 (10.0)"},
      {"measurement": "General disorders and administration site conditions, worst severity Severe: Events", "value": 1},
      {"measurement": "General disorders and administration site conditions: Events", "value": 27},
      {"measurement": "Hallucination, auditory, worst severity Mild: Events", "value": 1},
      {"measurement": "Hallucination, auditory, worst severity Moderate: Events", "value": 1},
      {"measurement": "Hallucination, auditory, worst severity Severe: Events", "value": 2},
      {"measurement": "Hallucination, auditory: Events", "value": 4},
      {"measurement": "Hallucination, tactile: Events", "value": 2},
      {"measurement": "Hallucination, visual, worst severity Mild: Events", "value": 3},
      {"measurement": "Hallucination, visual, worst severity Mild: N (%)", "value": "3 (10.0)"},
      {"measurement": "Hallucination, visual, worst severity Moderate: Events", "value": 8},
      {"measurement": "Hallucination, visual, worst severity Severe: Events", "value": 7},
      {"measurement": "Hallucination, visual: Events", "value": 20},
      {"measurement": "Hallucination, worst severity Mild: Events", "value": 0},
      {"measurement": "Hallucination, worst severity Mild: N (%)", "value": 0},
      {"measurement": "Hallucination, worst severity Moderate: Events", "value": 3},
      {"measurement": "Hallucination, worst severity Moderate: N (%)", "value": "3 (10.0)"},
      {"measurement": "Hallucination, worst severity Severe: Events", "value": 0},
      {"measurement": "Hallucination, worst severity Severe: N (%)", "value": 0},
      {"measurement": "Hallucination: Events", "value": 3},
      {"measurement": "Hallucination: N (%)", "value": "3 (10.0)"},
      {"measurement": "Headache, worst severity Mild: Events", "value": 12},
      {"measurement": "Headache, worst severity Mild: N (%)", "value": "9 (30.0)"},
      {"measurement": "Headache, worst severity Moderate: Events", "value": 0},
      {"measurement": "Headache, worst severity Moderate: N (%)", "value": 0},
      {"measurement": "Headache, worst severity Severe: Events", "value": 0},
      {"measurement": "Headache, worst severity Severe: N (%)", "value": 0},
      {"measurement": "Headache: Events", "value": 12},
      {"measurement": "Headache: N (%)", "value": "9 (30.0)"},
      {"measurement": "Hypoaesthesia, worst severity Mild: Events", "value": 2},
      {"measurement": "Hypoaesthesia, worst severity Moderate: Events", "value": 0},
      {"measurement": "Hypoaesthesia, worst severity Moderate: N (%)", "value": 0},
      {"measurement": "Hypoaesthesia, worst severity Severe: Events", "value": 0},
      {"measurement": "Hypoaesthesia, worst severity Severe: N (%)", "value": 0},
      {"measurement": "Hypoaesthesia: Events", "value": 2},
      {"measurement": "Illusion, worst severity Mild: Events", "value": 7},
      {"measurement": "Illusion, worst severity Moderate: Events", "value": 6},
      {"measurement": "Illusion, worst severity Severe: Events", "value": 0},
      {"measurement": "Illusion, worst severity Severe: N (%)", "value": 0},
      {"measurement": "Illusion: Events", "value": 25},
      {"measurement": "Infections and infestations, worst severity Mild: Events", "value": 2},
      {"measurement": "Infections and infestations, worst severity Moderate: Events", "value": 2},
      {"measurement": "Infections and infestations, worst severity Severe: Events", "value": 0}
    ]}
  ]
}
